Source: article PMC10144323, “Preparation and Bioevaluation of a Novel ^99mTc-Labeled Glucose Derivative Containing Cyclohexane as a Promising Tumor Imaging Agent” (Pharmaceuticals, 2023)
Read-outs that look alike come from different tables or passages of the source.

Key:
[1] = Determination of the partition coefficient (log P); format: physicochemical; conditions: n-octanol / phosphate buffer (0.025 M, pH 7.4)
Protocol: To determine the partition coefficient, 1.4 mL of phosphate buffer (0.025 M, pH 7.4) and 1.5 mL of n-octanol was taken into a 5 mL centrifuge tube, to which 0.1 mL of the [^99mTc]Tc-CNMCHDG solution (2.4 MBq) was added into the centrifuge tube in turn. The solution was then vortexed for 3 min and centrifuged for 3 min (3000 r/min). Then, 0.1 mL was removed from the two phases with a pipette gun, respectively, and the radioactive counts of the two phases were measured and used to calculate the partition coefficient P. The final partition coefficient was expressed as log P ± SD.

A549 tumor cells = assay: In vitro cellular uptake studies; format: cell-based, Human; conditions: glucose-free DMEM, 1 h uptake
Protocol: Human alveolar basal epithelial cells from lung cancer cells (A549 cells) were used in in vitro cellular uptake studies. A549 cells in the logarithmic growth phase were collected, prepared in a cell suspension of 3 × 10^5 cells/mL DMEM medium, and seeded into a 24-well plate (1 mL/well). The cells were evenly dispersed in the holes by vibration. Afterwards, the well plate was placed in a 37 °C incubator with 5% CO2 overnight to enable the cells to grow and stick to the bottom of the wells. After the cells were attached to the wells, the medium in the well plate was aspirated and washed with 0.5 mL of glucose-free DMEM medium, followed by the addition of 0.5 mL of glucose-free DMEM for glucose deprivation. One hour later, 0.1 mL of glucose-free medium, D-glucose (2 mg), L-glucose (2 mg) and insulin (2 IU) were added to the wells, respectively, and the cells were preincubated for 15 min. Subsequently, 0.1 mL of [^99mTc]Tc-CNMCHDG complex solution (0.74 MBq) was added to each well, and the volume of the solution in the wells was made up to 1 mL using the glucose-free DMEM. The well plates continued to be incubated in a 37 °C incubator, and after 1 h, the medium was aspirated and washed twice with 0.5 mL of cold PBS solution (0.067 M, pH 7.4). The cells were lysed by adding 0.5 mL of a sodium hydroxide solution (1 M). Finally, the solution was transferred to plastic test tubes, and the radioactivity counts were measured using a γ-counter detector. This procedure was carried out four times for each group.

[2] = Pharmacokinetic characteristics (blood time-activity); format: in vivo; conditions: healthy Kunming female mice
Protocol: Drug and Statistics (DAS) 3.2.8 software was used to calculate the pharmacokinetic parameters and to study the relationship between drug concentration and time based on the results. Time-activity curve of blood of [^99mTc]Tc-CNMCHDG in healthy kunming female mice was shown in Figure 6 and major pharmacokinetics parameters are listed in Table 1. […] In addition, the blood intake values were all lower than 0.1%ID/g at 90 min post-injection. According to the calculation results of the DAS 3.2.8 software, the distribution of [^99mTc]Tc-CNMCHDG in the blood was in accordance with the three-compartment mode.
Forty Kunming female mice were divided into eight groups and injected with 0.1 mL of [^99mTc]Tc-CNMCHDG (0.37 MBq) via tail vein, and were sacrificed at 2, 5, 10, 30, 60, 90, 120 and 240 min after injection, respectively. The blood samples were collected, weighed and counted a γ-counter detector to calculate the%ID/g value. The blood uptake-time curves were generated and analyzed by DAS 3.2.8 software.

S180 tumor-bearing mice = assay: Biodistribution in S180 tumor-bearing mice with pre-treatment (uptake mechanism); format: in vivo, female Kunming mice
Protocol: (§1) Animal studies were performed according to the Regulation on Laboratory Animals of the Beijing Municipality and the guidelines of the Ethics Committee of Beijing Normal University (permit no. BNUCC-EAW-2022-001). The A549 tumor-bearing model mice were developed by injecting 2 × 10^6 A549 cells in 0.1 mL of F-12k medium subcutaneously into the armpit of the right upper limb of balb/c nude mice. Similarly, the S180 tumor-bearing model mice were developed by subcutaneously injecting 1 × 10^6 S180 cells in 0.1 mL of saline into the right upper limb of female Kunming mice. The biodistribution of the tumor-bearing mice was determined when the tumor grew to approximately 5 mm after about two weeks of feeding. The A549 tumor mice were injected with 0.1 mL of the radiolabeled [^99mTc]Tc-CNMCHDG or [^99mTc]Tc-CN7DG solution (0.37 MBq) through the tail vein and sacrificed after 30 and 120 min post-injection (n = 3). In addition, to test whether the [^99mTc]Tc-CNMCHDG complex was involved in the glucose transporter mechanism, saline (0.1 mL), 2-deoxy-D-glucose (6 mg per mouse) and insulin (0.25 units per mouse) were injected into S180 tumor mice half an hour before administering the radiolabeled complex, and the mice were sacrificed at 60 min post-injection (n = 5). The organs and tissues of interest, such as heart, liver, lung, kidney, spleen, stomach, bone, intestine and tumor, were dissected, wiped and weighed. Finally, the radioactivity count in these organs and tissues was measured using a γ-counter detector, and the final results were expressed as the percent uptake of injected dose per gram ± the standard deviation (%ID/g ± SD).

[3] = In vitro stability in mouse serum (radio-HPLC radiochemical purity); format: in vitro ADME; conditions: 4 h in mouse serum at 37 °C
Protocol: (§2) The in vitro stability of the [^99mTc]Tc-CNMCHDG complex was determined by measuring its radiochemical purity. The labeled [^99mTc]Tc-CNMCHDG complex solution was placed in saline at room temperature for 4 h, and the radiochemical purity of the complex was calculated using radio-HPLC data to determine whether the complex had good stability at room temperature. Then, 100 μL of labeled solution (1.8 MBq) and 200 μL of mouse serum were added to a centrifuge tube, and the tube was placed in an incubator at 37 °C for 4 h. At the end of the incubation, 600 μL of an acetonitrile solvent was added to the centrifuge tube. Subsequently, the supernatant was filtered through a 0.22-μm filter and taken for HPLC analysis after centrifugation.

[4] = In vitro stability in saline (radio-HPLC radiochemical purity); format: physicochemical; conditions: 4 h in saline at room temperature
Protocol: as §2

A549 tumor-bearing mice [5] = assay: Biodistribution in A549 tumor-bearing mice; format: in vivo, balb/c nude mice; conditions: for tumor uptake: i.v., n = 3
Protocol: as §1

A549 tumor-bearing mice [6] = assay: SPECT/CT imaging studies; format: in vivo
Protocol: The radiolabeled [^99mTc]Tc-CNMCHDG solution (18.5 MBq) was injected into the A549 tumor-bearing mice via the tail vein, and the SPECT imaging study was performed at 2 h post-injection. In the same tumor mice, at the end of radioactive metabolism, the [^99mTc]Tc-CN7DG solution (18.5 MBq) was injected similarly into the same mice through the tail vein. The mice were anesthetized with 1.5% isoflurane and placed on a SPECT/CT scanner for imaging. The imaging scan settings were as follows: CT scan (512 views, 2 × 2 binding, 75 kV) for 15 min, followed by SPECT acquisition (Peak 140 keV, 20% width, 90° rotation, MMP 919 collimator) after 4 min. HiSPECT software and Vivoquant 2.5 software (Trifoil imaging, CA, USA) were used to acquire the SPECT/CT images (n = 3).

[7] = blood, three-compartmental modeling (DAS 3.2.8), i.v.
[8] = blood, three-compartmental modeling, i.v.
[9] = S180 tumor-bearing mice, 60 min post-injection

With `O=C(NC1C(O)OC(CO)C(O)C1O)C1CCC(C[N+]#[C][99Tc+]([C]#[N+]CC2CCC(C(=O)NC3C(O)OC(CO)C(O)C3O)CC2)([C]#[N+]CC2CCC(C(=O)NC3C(O)OC(CO)C(O)C3O)CC2)([C]#[N+]CC2CCC(C(=O)NC3C(O)OC(CO)C(O)C3O)CC2)([C]#[N+]CC2CCC(C(=O)NC3C(O)OC(CO)C(O)C3O)CC2)[C]#[N+]CC2CCC(C(=O)NC3C(O)OC(CO)C(O)C3O)CC2)CC1` (centres unmarked) [[^99mTc]Tc-CNMCHDG] the “partition coefficient (log P)” value [1] was −3.65 ± 0.10, the “inhibition of cellular uptake by D-glucose” value (A549 tumor cells; D-glucose (2 mg) preincubated 15 min, p = 0.009) was 29% and the “change of cellular uptake by L-glucose” value (A549 tumor cells; L-glucose (2 mg) preincubated 15 min) was “not significantly changed”. For the same compound, the “increase of cellular uptake after insulin” value (A549 tumor cells; insulin (2 IU) preincubated 15 min, p = 0.002) was 57%, the “AUC(0-t)” value [2, 7] was 298.528 %ID/g × min and the “AUC(0-∞)” value [2, 7] was 353.484 %ID/g × min. The “t1/2α (blood distribution half-life)” value [2, 8] was 0.598 min, the “t1/2β (elimination half-life, fast chamber)” value [2, 8] was 10.706 min and the “t1/2γ (elimination half-life, slow chamber)” value [2, 8] was 218.932 min. It also gave a blood uptake value ([2]; 2 min post-injection, i.v., n = 5) of 21.22 ± 2.00 %ID/g, a blood uptake value ([2]; 30 min post-injection) of 1.50 ± 0.15 %ID/g and a blood uptake value ([2]; 60 min post-injection) of 0.37 ± 0.16 %ID/g. The blood intake values ([2]; at 90 min post-injection) was “lower than 0.1 %ID/g”, the tumor uptake (S180 tumor-bearing mice) was 6.30 ± 0.56 %ID/g and the “decrease of tumor uptake by D-glucose pre-treatment” value (S180 tumor-bearing mice; [9]) was 43%. The “increase of tumor uptake by insulin pre-treatment” value (S180 tumor-bearing mice; [9]) was 35%, the tumor uptake (S180 tumor-bearing mice; S180 tumor-bearing mice, 60 min post-injection, pre-treatment with D-glucose, n = 5) was 2.64 ± 0.48 %ID/g and the tumor uptake (S180 tumor-bearing mice; S180 tumor-bearing mice, 60 min post-injection, saline pre-treatment (control), n = 5) was 4.66 ± 0.34 %ID/g. The “radiochemical purity after incubation” value [3] was “higher than 90%”, the “radiochemical purity after incubation” value [4] was “higher than 90%” and the kidney uptake (A549 tumor-bearing mice [5]; 30 min post-injection) was 6.54 ± 1.10 %ID/g. It also gave a liver uptake (A549 tumor-bearing mice [5]; 30 min post-injection) of 2.74 ± 0.31 %ID/g, a lung uptake (A549 tumor-bearing mice [5]; 30 min post-injection) of 1.98 ± 0.31 %ID/g and a tumor uptake (A549 tumor-bearing mice [5]; 30 min post-injection) of 5.40 ± 0.29 %ID/g. The “tumor uptake compared to [^99mTc]Tc-CN7DG” value (A549 tumor-bearing mice [5]; 120 min post-injection) was “slightly lower”, the tumor/liver ratio (A549 tumor-bearing mice [5]; 120 min post-injection) was 3.24 ± 0.25 and the tumor/lung ratio (A549 tumor-bearing mice [5]; 120 min post-injection) was 5.41 ± 0.39. The “uptake in non-target organs such as liver and lung compared to [^99mTc]Tc-CN7DG” value (A549 tumor-bearing mice [5]; 120 min post-injection) was “significantly lower”, the tumor uptake (A549 tumor-bearing mice [5]; 120 min post-injection) was 4.42 ± 0.36 %ID/g and the “route of metabolism/excretion in vivo (SPECT/CT signals in bladder and kidney)” value (A549 tumor-bearing mice [6]; A549 tumor-bearing mouse, 2 h after administration) was “mainly metabolized through the urine system”. The “visualization of the tumor by SPECT/CT” value (A549 tumor-bearing mice [6]; A549 tumor-bearing mouse, 2 h after administration, 18.5 MBq i.v.) was “clearly visualized” and the “SPECT/CT uptake in non-target areas (liver and kidney) compared to [^99mTc]Tc-CN7DG” value (A549 tumor-bearing mice [6]; same A549 tumor-bearing mouse, 2 h post-injection) was “significantly lower”.
